Tested on: phosphorylated AKT Ser473 (pAKT S473), mTORC2 activity, PC3 cells
Assay: mTOR target engagement assay, immunofluorescent cell-based, pAKT S473 readout (mTORC2 activity)
Protocol: The target engagement of mTOR kinase inhibitors was evaluated using an immunofluorescent cell-based assay. In this assay, inhibition of mTORC1 activity was measured by the reduction in the level of phosphorylated 4E-BP1^[…] (p4E-BP1 Thr37/46), and inhibition of mTORC2 activity was measured by the reduction of phosphorylated AKT^Ser473 (pAKT S473).
PC3 cells (prostate tumor cell-line that contains a mutation in the tumor suppressor PTEN, that promotes the phosphorylation and activation of AKT and 4E-BP1) were used in the immunofluorescence assay. […] PC3 cells were then treated with 40 μl of the serially diluted test compounds (in 5% fetal bovine serum, F12 medium containing 0.25% DMSO) for ninety minutes at 37° C. The test compound solution was removed, and the plates were washed gently two times with 25 μl phosphate buffered saline (PBS). […] 5% Goat serum in PBS/0.3% Triton was used to block non-specific binding (60 minutes).
The primary antibodies targeting pAKT S473 and p4E-BP1 Thr37/46 were diluted into PBS/0.3% Triton and incubated with the cells overnight at 4° C. […] Plates were washed three times with PBS/0.1% Tween 20 before adding the secondary antibody at a 1:200 dilution.
Finally, the plates were washed three times with PBS/0.1% Tween 20 and the fluorescent intensity was read using an Analyst HT from Molecular Devices.

[1] = Homo sapiens, PC-3, PC3 cells, compound treatment ninety minutes at 37° C.
[2] = Homo sapiens, PC-3, Table 6-1, PC3 cells
[3] = Homo sapiens, PC-3, Table 3-1, PC3 cells

Cn1cnc(-c2ccc(-c3cnn4c(N)c(C5CC5)c([C@@H]5C[C@H]6CC[C@@H](C5)N6C(=O)c5nnc[nH]5)nc34)cn2)c1 [Compound 4.23, ((1R,3a,5S)-3-(7-amino-6-cyclopropyl-3-(6-(1-methyl-1H-imidazol-4-yl)pyridin-3-yl)pyrazolo[1,5-a]pyrimidin-5-yl)-8-azabicyclo[3.2.1]octan-8-yl)(4H-1,2,4-triazol-3-yl)methanone]
IC50 [1]: 1 to 10 µM

CC(=O)c1c([C@@H]2C[C@H]3CC[C@@H](C2)N3C(=O)c2ccn[nH]2)nc2c(-c3ccc(-c4ccc(F)cc4)nc3)cnn2c1N [Compound 1.1.157, 1-(5-((1R,3s,5S)-8-(1H-pyrazole-5-carbonyl)-8-azabicyclo[3.2.1]octan-3-yl)-7-amino-3-(6-(4-fluorophenyl)pyridin-3-yl)pyrazolo[1,5-a]pyrimidin-6-yl)ethanone]
IC50 [1]: 0.001 to 0.1 µM

CC(=O)c1c([C@@H]2C[C@H]3CC[C@@H](C2)N3C(=O)C(C)(C)CO)nc2c(-c3ccc(-c4ncc[nH]4)nc3)cnn2c1N [Compound 6.45, 1-((1R,3s,5S)-3-(3-(6-(1H-imidazol-2-yl)pyridin-3-yl)-6-acetyl-7-aminopyrazolo[1,5-a]pyrimidin-5-yl)-8-azabicyclo[3.2.1]octan-8-yl)-3-hydroxy-2,2-dimethylpropan-1-one]
IC50 [2]: 0.1 to 1 µM

C[C@@H](O)C(=O)N1[C@@H]2CC[C@H]1C[C@H](c1nc3c(-c4ccc(-c5ccc(F)cc5)nc4)cnn3c(N)c1S(C)(=O)=O)C2 [Compound 3.122, (R)-1-((1R,3S,5S)-3-(7-amino-3-(6-(4-fluorophenyl)pyridin-3-yl)-6-(methylsulfonyl)pyrazolo[1,5-a]pyrimidin-5-yl)-8-azabicyclo[3.2.1]octan-8-yl)-2-hydroxypropan-1-one]
IC50 [3]: 0.1 to 1 µM

CC(=O)c1c(N2CC3CCC(C2)N3C(=O)[C@@H](C)O)nc2c(-c3ccc(-c4ccccc4)nc3)cnn2c1N [Compound 8.2, (2R)-1-(3-(6-acetyl-7-amino-3-(6-phenylpyridin-3-yl)pyrazolo[1,5-a]pyrimidin-5-yl)-3,8-diazabicyclo[3.2.1]octan-8-yl)-2-hydroxypropan-1-one]
IC50 (Homo sapiens, PC-3, PC3 cells): 0.1 to 1 µM

Cc1ccc(-c2cnn3c(N)c(C4CC4)c([C@@H]4C[C@H]5CC[C@@H](C4)N5C(=O)c4nnc[nH]4)nc23)cn1 [Compound 4.16, ((1R,3s,5S)-3-(7-amino-6-cyclopropyl-3-(6-methylpyridin-3-yl)pyrazolo[1,5-a]pyrimidin-5-yl)-8-azabicyclo[3.2.1]octan-8-yl)(4H-1,2,4-triazol-3-yl)methanone]
IC50 [1]: 0.1 to 1 µM

CS(=O)(=O)c1c([C@@H]2C[C@H]3CC[C@@H](C2)N3C(=O)CO)nc2c(-c3ccc(-c4ccc(F)cc4)nc3)cnn2c1N [Compound 3.118, 1-((1R,3a,5S)-3-(7-amino-3-(6-(4-fluorophenyl)pyridin-3-yl)-6-(methylsulfonyl)pyrazolo[1,5-a]pyrimidin-5-yl)-8-azabicyclo[3.2.1]octan-8-yl)-2-hydroxyethanone]
IC50 (Table 3-1, PC3 cells): 0.1 to 1 µM

CS(=O)(=O)c1c([C@@H]2C[C@H]3CC[C@@H](C2)N3C(=O)c2ccn[nH]2)nc2c(-c3ccc(-c4ccc(F)cc4)nc3)cnn2c1N [Compound 3.121, ((1R,3s,5S)-3-(7-amino-3-(6-(4-fluorophenyl)pyridin-3-yl)-6-(methylsulfonyl)pyrazolo[1,5-a]pyrimidin-5-yl)-8-azabicyclo[3.2.1]octan-8-yl)(1H-pyrazol-5-yl)methanone]
IC50 [3]: 0.001 to 0.1 µM

CC(=O)OCC(=O)N1[C@@H]2CC[C@H]1C[C@H](c1nc3c(-c4ccc(-c5ncc[nH]5)nc4)cnn3c(N)c1C(C)=O)C2 [Compound 6.9, 2-((1R,3s,5S)-3-(3-(6-(1H-imidazol-2-yl)pyridin-3-yl)-6-acetyl-7-aminopyrazolo[1,5-a]pyrimidin-5-yl)-8-azabicyclo[3.2.1]octan-8-yl)-2-oxoethyl acetate]
IC50 [2]: 0.1 to 1 µM

CC(=O)c1c([C@H]2CC3CC[C@H](C2)N3C(=O)c2nnc[nH]2)nc2c(-c3cnc4c(c3)CCC4O)cnn2c1N (stereo partly drawn) [Compound 7.60, 1-(5-((1R,3s,5S)-8-(4H-1,2,4-triazole-3-carbonyl)-8-azabicyclo[3.2.1]octan-3-yl)-7-amino-3-(7-hydroxy-6,7-dihydro-5H-cyclopenta[b]pyridin-3-yl)pyrazolo[1,5-a]pyrimidin-6-yl)ethanone]
IC50 (Homo sapiens, PC-3, PC3 cells): 0.1 to 1 µM

CC(=O)c1c(N2CC3CCC2CN3C(=O)c2nnc[nH]2)nc2c(-c3ccc(-c4ccccc4)nc3)cnn2c1N (centres unmarked) [Compound 8.3, 1-(5-(5-(4H-1,2,4-triazole-3-carbonyl)-2,5-diazabicyclo[2.2.2]octan-2-yl)-7-amino-3-(6-phenylpyridin-3-yl)pyrazolo[1,5-a]pyrimidin-6-yl)ethanone]
IC50 (Homo sapiens, PC-3, PC3 cells): 0.1 to 1 µM

CC(=O)c1c([C@@H]2C[C@H]3CC[C@@H](C2)N3C(=O)CO)nc2c(-c3cnc(-c4ncc[nH]4)c(C)c3)cnn2c1N [Compound 6.33, 1-((1R,3s,5S)-3-(3-(6-(1H-imidazol-2-yl)-5-methylpyridin-3-yl)-6-acetyl-7-aminopyrazolo[1,5-a]pyrimidin-5-yl)-8-azabicyclo[3.2.1]octan-8-yl)-2-hydroxyethanone]
IC50 [2]: 1 to 10 µM

Nc1ncc(-c2cnn3c(N)cc([C@@H]4C[C@H]5CC[C@@H](C4)N5C(=O)c4nnc[nH]4)nc23)cn1 [Compound 8.88, ((1R,3s,5S)-3-(7-amino-3-(2-aminopyrimidin-5-yl)pyrazolo[1,5-a]pyrimidin-5-yl)-8-azabicyclo[3.2.1]octan-8-yl)(4H-1,2,4-triazol-3-yl)methanone]
IC50 (Homo sapiens, PC-3, PC3 cells): > 10 µM

CC(=O)c1c([C@@H]2C[C@H]3CC[C@@H](C2)N3C(=O)c2cnn[nH]2)nc2c(-c3ccc(C4(O)CCC4)nc3)cnn2c1N [Compound 7.19, 1-(5-((1R,3s,5S)-8-(1H-1,2,3-triazole-5-carbonyl)-8-azabicyclo[3.2.1]octan-3-yl)-7-amino-3-(6-(1-hydroxycyclobutyl)pyridin-3-yl)pyrazolo[1,5-a]pyrimidin-6-yl)ethanone]
IC50 [1]: 0.1 to 1 µM

CS(=O)(=O)c1c([C@@H]2C[C@H]3CC[C@@H](C2)N3CC(N)=O)nc2c(-c3ccc(-c4ccccc4)nc3)cnn2c1N [Compound 8.92, 2-((1R,3s,5S)-3-(7-amino-6-(methylsulfonyl)-3-(6-phenylpyridin-3-yl)pyrazolo[1,5-a]pyrimidin-5-yl)-8-azabicyclo[3.2.1]octan-8-yl)acetamide]
IC50 (Homo sapiens, PC-3, PC3 cells): 1 to 10 µM

CC(=O)c1c(N2CC3CCC(C2)N3C(=O)c2nnc[nH]2)nc2c(-c3ccc(-c4ccccc4)nc3)cnn2c1N [Compound 8.1, 1-(5-(8-(4H-1,2,4-triazole-3-carbonyl)-3,8-diazabicyclo[3.2.1]octan-3-yl)-7-amino-3-(6-phenylpyridin-3-yl)pyrazolo[1,5-a]pyrimidin-6-yl)ethanone]
IC50 (Homo sapiens, PC-3, PC3 cells): 0.1 to 1 µM

CC(=O)c1c([C@@H]2C[C@H]3CC[C@@H](C2)N3C(=O)C(C)(C)O)nc2c(-c3ccc(-c4ccccc4)nc3)cnn2c1N [Compound 1.1.6, 1-((1R,3s,5S)-3-(6-acetyl-7-amino-3-(6-phenylpyridin-3-yl)pyrazolo[1,5-a]pyrimidin-5-yl)-8-azabicyclo[3.2.1]octan-8-yl)-2-hydroxy-2-methylpropan-1-one]
IC50 [1]: 0.1 to 1 µM

From patent publication US9227971B2, “Pyrazolo[1,5-a]pyrimidine compounds as mTOR inhibitors” (Merck Sharp & Dohme Corp., priority 2010, dated 2016)
